Where a name gives a salt, the structure may show the parent alone.
Experiments:
[1] = target: T1, human H4 (Homo sapiens, UniProt Q9H3N8); assay: In vitro histamine receptor cell-based assay (aequorin bioluminescence), H4 antagonism; conditions: CHO-K1 cells expressing human H4, aequorin and Gα16; histamine at EC80; read-out: H4 Antagonist EC50
T1 construct: host or cells: CHO-K1
Method: (§1) The cell-based assays utilize an aequorin dependent bioluminescence signal. Doubly-transfected, stable CHO-K1 cell lines expressing human H1 or H4, mitochondrion-targeted aequorin, and (H4 only) human G protein Gα16 are obtained from Perkin-Elmer. Cells are maintained in F12 (Ham's) growth medium, containing 10% (vol./vol.) fetal bovine serum, penicillin (100 IU/mL), streptomycin (0.1 mg/mL), zeocin (0.25 mg/mL) and geneticin (0.40 mg/mL). Cell media components are from Invitrogen, Inc. One day prior to assay, the growth medium is replaced with the same, excluding zeocin and geneticin.
(§2) For assay preparation, growth medium is aspirated, and cells are rinsed with calcium-free, magnesium-free phosphate-buffered saline, followed by two to three minute incubation in Versene (Invitrogen, Inc.) at 37° C. Assay medium (DMEM:F12 [50:50], phenol-red free, containing 1 mg/mL protease-free bovine serum albumin) is added to collect the released cells, which are then centrifuged. The cell pellet is re-suspended in assay medium, centrifuged once more, and re-suspended in assay medium to a final density of 5×10^6 cells/mL. Coelenterazine-h dye (500 μM in ethanol) is added to a final concentration of 5 μM, and mixed immediately. The conical tube containing the cells is then wrapped with foil to protect the light-sensitive dye. The cells are incubated for four hours further at room temperature (approximately 21° C.) with end-over-end rotation to keep them in suspension.
Just before assay, the dye-loaded cells are diluted to 0.75×10^6 cells/mL (H1 receptor) or 1.5×10^6 cells/mL (H4 receptor) with additional assay medium. Cells are dispensed to 1536 well micro-titer plates at 3 μL/well. To assay receptor antagonism, 60 nl of 100× concentration test compounds in 100% dimethyl sulfoxide (DMSO) are dispensed to the wells, one compound per well, by passive pin transfer, and the plates are incubated for 15 minutes at room temperature. […] The pipette dispenses 3 μL/well of agonist (histamine, at twice the final concentration, where final concentration is a previously determined EC80) in assay medium, with concurrent bioluminescence detection. Agonist activity of test compounds is excluded by separate assays that measure response to test compounds immediately, without added histamine agonist.
(§3) CCD image capture on the Lumilux includes a 5 second baseline read prior to agonist addition, and generally a 40 second read per plate after agonist addition. A decrease in bioluminescence signal (measured either as area-under-the-curve, or maximum signal amplitude minus minimum signal amplitude) correlates with receptor antagonism in a dose dependent manner. The negative control is DMSO lacking any test compound. For antagonist assays, the positive controls are diphenhydramine (2-Diphenylmethoxy-N,N-dimethylethylamine, 10 μM final concentration, H1 receptor) or JNJ7777120 (1-[(5-Chloro-1H-indol-2-yl)carbonyl]-4-methyl-piperazine, 10 μM final concentration, H4 receptor). Efficacy is measured as a percentage of positive control activity.

[2] = target: T2, human H1 (Homo sapiens, UniProt P35367); assay: In vitro histamine receptor cell-based assay (aequorin bioluminescence), H1 antagonism; conditions: CHO-K1 cells expressing human H1 and aequorin; histamine at EC80; read-out: H1 Antagonist EC50
T2 construct: host or cells: CHO-K1
Method: as §1, §2
Just before assay, the dye-loaded cells are diluted to 0.75×10^6 cells/mL (H1 receptor) or 1.5×10^6 cells/mL (H4 receptor) with additional assay medium. Cells are dispensed to 1536 well micro-titer plates at 3 μL/well. To assay receptor antagonism, 60 nl of 100× concentration test compounds in 100% dimethyl sulfoxide (DMSO) are dispensed to the wells, one compound per well, by passive pin transfer, and the plates are incubated for 15 minutes at room temperature. Assay plates are then transferred to a Lumilux bioluminescence plate reader (Perkin-Elmer) equipped with an automated 1536 disposable tip pipette. The pipette dispenses 3 μL/well of agonist (histamine, at twice the final concentration, where final concentration is a previously determined EC80) in assay medium, with concurrent bioluminescence detection. Agonist activity of test compounds is excluded by separate assays that measure response to test compounds immediately, without added histamine agonist.
as §3

T2 sequence (P35367 whole entry): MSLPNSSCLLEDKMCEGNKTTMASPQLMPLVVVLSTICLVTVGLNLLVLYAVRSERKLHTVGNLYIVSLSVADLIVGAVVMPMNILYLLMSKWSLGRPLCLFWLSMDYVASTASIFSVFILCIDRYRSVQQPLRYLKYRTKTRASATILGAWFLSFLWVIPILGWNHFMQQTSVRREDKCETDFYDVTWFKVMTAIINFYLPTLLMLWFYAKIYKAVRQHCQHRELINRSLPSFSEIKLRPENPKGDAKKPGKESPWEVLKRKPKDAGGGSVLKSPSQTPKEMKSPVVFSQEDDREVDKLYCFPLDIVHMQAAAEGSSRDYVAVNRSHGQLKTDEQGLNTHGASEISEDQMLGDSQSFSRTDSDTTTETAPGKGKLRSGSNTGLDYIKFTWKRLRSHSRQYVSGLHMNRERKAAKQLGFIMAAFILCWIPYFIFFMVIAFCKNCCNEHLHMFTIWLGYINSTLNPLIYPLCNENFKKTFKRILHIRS

SMILES | EC50 [1] [µM] | EC50 [2] [µM]
Fc1c(C(F)(F)F)ccc2nc(N3CCNCC3)c3nnnn3c12 [Example 172, 9-fluoro-4-(piperazin-1-yl)-8-(trifluoromethyl)tetrazolo[1,5-a]quinoxaline] | < 10 | > 10
Cc1nc2c3ccc(F)cc3nc(N3CCN(C)CC3)n2n1 [Example 107, 8-Fluoro-2-methyl-5-(4-methylpiperazin-1-yl)-[1,2,4]triazolo[1,5-c]quinazoline] | < 10 | > 10
CN1CCN(c2nc3c(F)cc(C(F)(F)F)cc3n3cnnc23)CC1 [Example 48, 6-Fluoro-4-(4-methylpiperazin-1-yl)-8-(trifluoromethyl)-[1,2,4]triazolo[4,3-a]quinoxaline] | < 10 | > 10
Cc1nc2c3cc(C(F)(F)F)c(Cl)cc3nc(N3CCNCC3)n2n1 [Example 123, 8-chloro-2-methyl-5-(piperazin-1-yl)-9-(trifluoromethyl)-[1,2,4]triazolo[1,5-c]quinazoline] | < 10 | > 10
Clc1ccc2nc(N3CCNCC3)c3nocc3c2c1 [Example 167, 8-Chloro-4-(piperazin-1-yl)isoxazolo[3,4-c]quinoline] | < 10 | < 10
COc1ccc2nc(N3CCNCC3)n3nc(C)nc3c2c1 [Example 102, 9-Methoxy-2-methyl-5-(piperazin-1-yl)-[1,2,4]triazolo[1,5-c]quinazoline] | > 10 | > 10
Clc1ccc2nc(N3CCNCC3)c3ncoc3c2c1 [Example 142, 8-Chloro-4-piperazinyl-1,3-oxazolo[4,5-c]quinoline] | < 10 | > 10
FC(F)(F)c1ccc2nc(N3CCNCC3)c3nccn3c2c1 [Example 178, 4-(piperazin-1-yl)-8-(trifluoromethypimidazo[1,2-a]quinoxaline hydrochloride] | < 10 | > 10
CN1CCN(c2nc3cc(C(F)(F)F)ccc3c3conc23)CC1 [Example 220, 4-(4-Methylpiperazinyl)-7-(trifluoromethyl)isoxazolo[3,4-c]quinoline] | < 10 | > 10
Clc1ccc2c(c1)N1CCN=C1C(N1CCNCC1)=N2 [Example 6, 8-Chloro-4-(piperazin-1-yl)-1,2-dihydroimidazo[1,2-a]quinoxaline] | < 10 | > 10
Clc1ccc2nc(N3CCN4CCCC4C3)c3nncn3c2c1 (stereo not drawn) [Example 65, 8-chloro-4-(hexahydropyrrolo[1,2-a]pyrazin-2(1H)-yl)-[1,2,4]triazolo[4,3-a]quinoxaline] | < 10 | > 10
CN1CCN(c2nc3cc(Cl)ccc3c3nccnc23)CC1 [Example 250, 8-chloro-5-(4-methylpiperazin-1-yl)pyrazino[2,3-c]quinoline] | < 10 | < 10
Cc1cc2c(cc1F)nc(N1CCNCC1)c1nncn12 [Example 35] | > 10 | > 10
CNCCN(C)c1nc2ccc(Cl)cc2n2cnnc12 [Example 77, N^1-(8-chloro-[1,2,4]triazolo[4,3-a]quinoxalin-4-yl)-N^1,N^2-dimethylethane-1,2-diamine] | > 10 | > 10
CCc1nc2c3cc(Cl)ccc3nc(N3CCNCC3)n2n1 [Example 115, 9-Chloro-2-ethyl-5-(piperazin-1-yl)-[1,2,4]triazolo[1,5-c]quinazoline] | < 10 | > 10
CN1CCN(c2nc3ccc(C(F)(F)F)cc3c3nc(C(F)(F)F)nn23)CC1 [Example 120, 5-(4-methylpiperazin-1-yl)-2,9-bis(trifluoromethyl)-[1,2,4]triazolo[1,5-c]quinazoline] | < 10 | > 10
CN1CCN(C2=Nc3ccc(Cl)cc3N3CCN=C23)CC1 [Example 5, 8-Chloro-4-(4-methylpiperazin-1-yl)-1,2-dihydroimidazo[1,2-a]quinoxaline] | < 10 | > 10
CN1CCN(c2nc3ccc(Cl)cc3c3nnnn23)CC1 [Example 13, 9-chloro-5-(4-methylpiperazin-1-yl)tetrazolo[1,5-c]quinazoline] | < 10 | > 10
CN1CCN(c2nc3c(F)c(C(F)(F)F)ccc3n3cnnc23)CC1 [Example 170, 6-fluoro-4-(4-methylpiperazin-1-yl)-7-(trifluoromethyl)-[1,2,4]triazolo[4,3-a]quinoxaline] | < 10 | > 10
Clc1ccc2nc(N3CCNCC3)n3ncnc3c2c1 [Example 92, 9-Chloro-5-(piperazin-1-yl)-[1,2,4]triazolo[1,5-c]quinazoline] | < 10 | > 10
NC1CCN(c2nc3ccc(Cl)cc3n3cnnc23)C1 (stereo not drawn) [Example 59, 1-(8-chloro-[1,2,4]triazolo[4,3-a]quinoxalin-4-yl)pyrrolidin-3-amine] | < 10 | > 10
FC(F)(F)c1ccc2nc(N3CCNCC3)c3nocc3c2c1 [Example 219, 4-piperazinyl-8-(trifluoromethyl)isoxazolo[3,4-c]quinoline] |  | > 10

Now from value to compound:

EC50 [1] [µM] | EC50 [2] [µM] | SMILES
< 10 | > 10 | Cc1nc2c3cc(OC(F)(F)F)ccc3nc(N3CCNCC3)n2n1 [Example 134, 2-methyl-5-(piperazin-1-yl)-9-(trifluoromethoxy)-[1,2,4]triazolo[1,5-c]quinazoline hydrochloride]
< 10 | > 10 | CCc1nnc2c(N3CCN(C)CC3)nc3ccc(Cl)cc3n12 [Example 86, 8-chloro-1-ethyl-4-(4-methylpiperazin-1-yl)-[1,2,4]triazolo[4,3-a]quinoxaline]
< 10 | > 10 | Cc1nc2c(N3CCN(C)CC3)nc3ccc(C(F)(F)F)cc3c2o1 [Example 214, 2-methyl-4-(4-methylpiperazin-1-yl)-8-(trifluoromethyl)oxazolo[4,5-c]quinoline]
> 10 | > 10 | Clc1ccc2nc(C3CCNCC3)c3nncn3c2c1 [Example 3, 8-Chloro-4-(piperidin-4-yl)-[1,2,4]triazolo[4,3-a]quinoxaline]
< 10 | > 10 | C=Cc1ccc2nc(N3CCN(C)CC3)n3nc(C)nc3c2c1 [Example 137, 2-methyl-5-(4-methylpiperazin-1-yl)-9-vinyl-[1,2,4]triazolo[1,5-c]quinazoline]
< 10 | > 10 | CN1CCN(c2nc3cc(C(F)(F)F)c(F)cc3n3cnnc23)CC1 [Example 42, 8-fluoro-4-(4-methylpiperazin-1-yl)-7-(trifluoromethyl)-[1,2,4]triazolo[4,3-a]quinoxaline]
< 10 | < 10 | Brc1ccc2nc(N3CCNCC3)c3nocc3c2c1 [Example 223, 8-bromo-4-(piperazin-1-yl)isoxazolo[3,4-c]quinoline]
> 10 | > 10 | CC(C)Nc1ccc2nc(N3CCN(C)CC3)c3nncn3c2c1 [Example 176, N-isopropyl-4-(4-methylpiperazin-1-yl)-[1,2,4]triazolo[4,3-a]quinoxalin-8-amine]
< 10 | > 10 | Fc1cc2c(cc1Br)nc(N1CCNCC1)c1nncn12 [Example 198, 7-bromo-8-fluoro-4-(piperazin-1-yl)-[1,2,4]triazolo[4,3-a]quinoxaline]
> 10 | > 10 | Clc1ccc2nc(N3CCNCC3)n3nc(Cc4ccccc4)nc3c2c1 [Example 119, 2-Benzyl-9-chloro-5-(piperazin-1-yl)-[1,2,4]triazolo[1,5-c]quinazoline]
